{"source": "patent US7186702B2", "about": "“Method of treating leishmaniasis using methyl-beta-cyclodextrin” (priority 2002, dated 2007)", "key": {"[1]": {"test_system": "Leishmania donovani strain AG83", "test": "Intracellular amastigote count in infected macrophages by Giemsa staining", "type": "cell-based", "conditions": "J774A.1 macrophages", "protocol": "(§1) Cells and cell culture. A murine macrophage cell line J774A.1 (American Type Culture Collection, Rockville, Md.) was used. The cells were maintained at 37° C. in RPMI-1640 medium containing 10% heat inactivated fetal calf serum (FCS)(Biological Industries, Israel) in a CO2 incubator (5% CO2) as described previously^10. The macrophages were seeded onto tissue culture plates (60 mm) at a density of 1×10^5 cells/plate and grown for 48 hrs before use.\n(§2) Parasite culture. Leishmania donovani strain AG83 (MHOM/IN/1983/AG83) promastigotes were maintained at 24° C. in modified M-199 medium (Gibco/BRL) supplemented with 100 units/ml penicillin (Sigma, U.S.A.), 100 µg/ml streptomycin (Sigma, U.S.A.), and 10% heat inactivated FCS.\n(§3) Cholesterol depletion and estimation. J774A.1 cells grown on culture dishes were depleted of cholesterol by incubating for 30 min with 5 or 10 mM methyl-β-cyclodextrin (Sigma) at 37° C. in serum free medium^13,23. Total cellular cholesterol was estimated using Amplex Red cholesterol assay kit^27 (Molecular Probes). Cholesterol values were normalized to protein levels estimated using BCA assay reagent kit^28 (Pierce).\nInfecting macrophages with Leishmania. Promastigotes were added onto the macrophage monolayers (both control and cholesterol-depleted) at a parasite: macrophage ratio of 10:1. The parasite-macrophage interaction was allowed to progress for 15, 30 and 90 min at 37° C. At the end of incubation, monolayers were washed with phosphate buffered saline (PBS) to remove free parasites and placed on ice to loosen adherent cells from the plates. The monolayers were gently scraped to resuspend the macrophage-parasite complexes and the resulting cell suspension was analyzed either for radiolabel incorporation or macrophage-associated fluorescence. The percentage of infected macrophages was >95% after 3 hr with 5–8 amastigotes per macrophage as determined by Giemsa staining."}, "[2]": {"test_system": "Leishmania donovani strain AG83", "test": "Flow cytometric analysis of binding of FITC-labeled promastigotes to macrophages", "type": "cell-based", "conditions": "10 mM, J774A.1 macrophages, parasite:macrophage 10:1, especially after 90 min", "protocol": "as §1, §2\n(§4) Cholesterol depletion and estimation. […]\n(§5) Infecting macrophages with Leishmania. […] The monolayers were gently scraped to resuspend the macrophage-parasite complexes and the resulting cell suspension was analyzed either for radiolabel incorporation or macrophage-associated fluorescence. The percentage of infected macrophages was >95% after 3 hr with 5–8 amastigotes per macrophage as determined by Giemsa staining.\n(§6) Labeling L. donovani AG83 promastigotes with tritium or FITC for binding studies. […] The fluorescence from the FITC-labeled parasites associated with the macrophages was analyzed with a Beckman Coulter ELITE ESP flow cytometer (Miami, Fla.) using EXPO 32 software."}, "[3]": {"test_system": "J774A.1 macrophages", "test": "Cholesterol depletion and estimation (Amplex Red cholesterol assay kit)", "type": "cell-based, murine", "protocol": "as §1, §3"}, "[4]": {"test_system": "Leishmania donovani strain AG83", "test": "Ligand binding assay of [3H]thymidine labeled promastigotes to macrophages", "type": "cell-based", "conditions": "10 mM, J774A.1 macrophages, parasite:macrophage 10:1, assayed till 90 min", "protocol": "as §1, §2, §4, §5, §6"}}, "data": [{"substance": "methyl-β-cyclodextrin", "values": [{"measurement": "number of amastigotes present compared to control cells", "setting": "[1]; 5 mM, multiplicity of infection 10:1, 3 hr", "result": "concomitant reduction in the number of amastigotes"}, {"measurement": "amastigotes present compared to control cells", "setting": "[1]; 10 mM", "result": 50, "unit": "%"}, {"measurement": "reduction in the number of intracellular amastigotes", "setting": "[1]; 10 mM, multiplicity of infection 10:1, 3 hr", "result": "~50", "unit": "%"}, {"measurement": "fluorescence associated with cholesterol-depleted macrophages compared to control (FIG. 3)", "setting": "[2]", "result": "pronounced reduction in fluorescence"}, {"measurement": "reduction of cellular cholesterol", "setting": "[3]; 10 mM, 30 min incubation, total cellular cholesterol", "result": "~40", "unit": "%"}, {"measurement": "total cellular cholesterol upon treatment (FIG. 1)", "setting": "[3]; 5 or 10 mM", "result": "concentration-dependent reduction"}, {"measurement": "reduction in macrophage-parasite interaction (attachment) compared to control cells", "setting": "[4]", "result": "~45", "unit": "%"}]}]}
